Data on 6 compounds can be found in paper PMC11472310, “Distinctive Immune Signatures Driven by Structural Alterations in Desmuramylpeptide NOD2 Agonists” (Journal of Medicinal Chemistry, 2024).

Broadly, the solubility (kinetic) is solubility judged after dilution from a stock solution rather than from solid. By EC50 is commonly meant the concentration at which the effect is half-maximal.

Series [1] in a line: Kinetic solubility (method of Hoelke et al.). Format: physicochemical. From the text: Park et al. have shown that the degree of saturation of fatty acids exerts a profound impact on permeability of fatty acylated peptides—a higher degree of unsaturation results in higher permeability.[43] PUFA can also induce significant biophysical perturbations upon incorporation into membrane phospholipids.[67],[68] […] Given that the hydrophobicity of fatty acyl residues in general reduces as the number of unsaturated sites increases,[69],[70] we decided to ascertain how such structural modifications translate to the kinetic solubility of the molecule as a whole. […] The acylation with PUFA thus provides an elegant, albeit counterintuitive, approach, by which permeability of the molecule as a whole as well as its capacity for liposomal encapsulation can be enhanced without completely abolishing its aqueous solubility.

Another series has as its system K562 cancer cells. As to the kind of experiment: PBMC cytotoxicity against K562 cancer cells (flow cytometry). The conditions noted are these: for cytotoxicity of PBMCs against K562 cells, cotreatment with LPS (relative to negative control) / Cytotoxicity (ratio to control), + LPS: 10 μM + LPS 1 μg/mL; for cytotoxicity of PBMCs against K562 cells, cotreatment with LPS (relative to negative control) / enhancement of cytotoxicity of PBMCs against K562 cells (relative to negative control): 18 h, then 4 h coincubation; for cytotoxicity of PBMCs against K562 cells, cotreatment with LPS (relative to negative control): 40:1; for Cytotoxicity (ratio to control), + LPS / Cytotoxicity (ratio to control): Table S2; for Cytotoxicity (ratio to control) / enhancement of cytotoxicity of PBMCs against K562 cells (relative to negative control): alone: compounds 10 μM, LPS 1 μg/mL, IL-2 200 U/mL; for enhancement of cytotoxicity of PBMCs against K562 cells (relative to negative control): effector:target 40:1. Format: cell-based. As for the experimental part: In this study, we investigated the potential of desmuramylpeptides, both alone and in combination with LPS, to enhance the cytotoxic activity of PBMCs against cancer cells employing a flow-cytometry-based cytotoxicity assay based on coincubation of preactivated PBMCs with fluorescently labeled K562 cancer cells.[82] Among the diverse subpopulations within PBMCs, natural killer (NK) cells play a pivotal role in detecting and eliminating cancer cells. NOD2-mediated NK cell activity against cancer cells arises from both direct NOD2 agonist elicited cytolytic activity of NK cells[83] and indirect activation through cytokine release by other NOD2-responsive cells, such as monocytes, which comprise approximately 10% of PBMCs; such interactions potentially reinforce the immune response.[84] […] To that end, we utilized the entire PBMC population as effector cells rather than isolated NK cells, to mimic conditions more closely resembling the in vivo environment while K562 chronic myelogenous leukemia cells were used as the target cells in a 40:1 effector to target cell ratio.[87]
(§1) The PBMC cytotoxicity assays utilizing K562 cells were conducted following previously established methods, with some adjustments.[82] […] Meanwhile, K562 cells were stained with CFSE (Invitrogen, Carlsbad, CA, USA), washed twice with complete medium, and then added (1 × 10^4 cells per well) to the pretreated PBMCs to achieve a final effector cell to target tumor cell ratio of 40:1. Following a 4-h coincubation period at 37 °C with 5% CO2, cells were stained with Sytox blue dead cell stain (Invitrogen) and analyzed using an Attune NxT flow cytometer (Thermo Fisher Scientific, Waltham, MA, USA) along with FlowJo software (Tree Star, Inc., Ashland, OR, USA). Cells positive for both CFSE and Sytox blue were designated as dead K562 cells. PBMCs alone and CFSE-labeled cancer cells alone were also exposed to the compounds at equivalent concentrations and stained with Sytox blue to assess any direct cytotoxic effects of the compounds on PBMCs and cancer cells separately. Each experiment was conducted in duplicate and repeated in three independent biological replicates. Statistical analysis was performed using one-way ANOVA followed by Dunnett’s multiple comparisons test.
On the technique in general: In flow cytometry, cells or beads pass a laser one at a time.

The next series deals with T1, hNOD2 (Homo sapiens, UniProt Q9HC29).
T1 construct: host or cells: HEK-Blue NOD2 cells (HEK293)
T1 sequence (Q9HC29 whole entry): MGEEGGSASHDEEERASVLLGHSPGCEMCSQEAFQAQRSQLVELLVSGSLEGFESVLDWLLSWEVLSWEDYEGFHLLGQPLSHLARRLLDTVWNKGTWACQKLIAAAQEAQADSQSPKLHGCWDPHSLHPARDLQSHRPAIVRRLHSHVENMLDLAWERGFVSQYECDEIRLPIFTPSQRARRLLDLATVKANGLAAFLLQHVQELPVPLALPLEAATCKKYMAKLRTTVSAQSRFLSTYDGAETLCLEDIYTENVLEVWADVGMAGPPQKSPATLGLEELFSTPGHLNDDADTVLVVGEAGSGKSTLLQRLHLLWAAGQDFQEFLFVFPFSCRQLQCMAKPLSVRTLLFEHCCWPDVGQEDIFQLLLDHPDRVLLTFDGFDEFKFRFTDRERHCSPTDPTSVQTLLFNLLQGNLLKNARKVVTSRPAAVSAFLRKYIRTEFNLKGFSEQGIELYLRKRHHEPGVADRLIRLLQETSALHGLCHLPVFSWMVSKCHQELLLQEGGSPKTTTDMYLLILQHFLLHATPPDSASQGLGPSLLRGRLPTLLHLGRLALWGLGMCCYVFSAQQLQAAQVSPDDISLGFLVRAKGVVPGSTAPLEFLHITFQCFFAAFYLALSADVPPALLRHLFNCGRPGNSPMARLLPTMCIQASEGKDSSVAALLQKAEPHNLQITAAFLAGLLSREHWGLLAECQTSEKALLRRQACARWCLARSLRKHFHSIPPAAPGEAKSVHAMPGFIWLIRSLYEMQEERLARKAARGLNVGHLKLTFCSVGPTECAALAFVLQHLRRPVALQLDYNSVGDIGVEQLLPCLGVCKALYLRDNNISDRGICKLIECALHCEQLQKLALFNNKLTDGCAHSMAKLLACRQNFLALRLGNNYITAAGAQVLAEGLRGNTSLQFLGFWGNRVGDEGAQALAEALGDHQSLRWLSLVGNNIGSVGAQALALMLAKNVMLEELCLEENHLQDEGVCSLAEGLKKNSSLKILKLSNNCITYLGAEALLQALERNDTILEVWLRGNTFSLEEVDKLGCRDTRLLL
Kind of series: HEK-Blue NOD2 cell line reporter assay (NF-κB-inducible SEAP). Type of series: cell-based. As for the experimental part:
To assess the NOD2 agonistic potential of the synthesized desmuramylpeptides at a cellular level, we employed the HEK-Blue NOD2 cell line reporter assay, a validated and commercially available method. All synthesized compounds were evaluated for their dose-dependent activities to establish their EC50 values.
The HEK-Blue NOD1 and NOD2 cell line reporter assay was generated from HEK293 cells through cotransfection of the hNOD1 or hNOD2 gene, respectively, along with an NF-κB-inducible secreted embryonic alkaline phosphatase (SEAP) reporter gene. Upon activation of NOD1 or NOD2, NF-κB triggers the production of SEAP, which can be quantitatively measured colorimetrically. […] After 18 h of incubation at 37 °C with 5% CO2, SEAP activity was measured spectrophotometrically by absorbance at 630 nm (BioTek Synergy microplate reader; Winooski, VT, USA). EC50 values were determined using Prism software (version 9; GraphPad Software, CA, USA). Each experiment was conducted in duplicate and repeated in at least two independent biological replicates.
(Reporter assays use an easily measured gene product as a stand-in for the process of interest.)

A further series relates to human PBMCs. As to the kind of experiment: Cytokine release from peripheral blood mononuclear cells (LEGENDplex panel). Format: cell-based. The conditions noted are these: 18 h. From the text: The immunomodulatory effects of the selected desmuramylpeptides were examined in human primary peripheral blood mononuclear cells (PBMCs). This diverse mixture of immune cells provided a platform to investigate the effects of these NOD2 agonists within a physiologically relevant environment, encompassing other NOD2-interacting and downstream signaling proteins. […] Given that NOD2 activation often modulates the Toll-like receptor (TLR)-induced cytokine responses, we investigated the impact of combining desmuramylpeptides with lipopolysaccharide (LPS), a well-known TLR4 agonist, on cytokine secretion.[76]−[78]
The elicited cytokine profiles thus broadly reflect the structure–activity relationships obtained in the reporter gene assays.
Peripheral blood mononuclear cells were plated at a density of 1 × 10^6 cells/mL in 48-well plates containing 500 μL of growth medium. Cells were then treated with the compounds (2 μM) or the corresponding vehicle (0.1% DMSO), both in the absence and presence of LPS (10 ng/mL). Following an 18 h incubation period at 37 °C with 5% CO2, cell-free supernatants were collected and stored at −80 °C until analysis. […] Standard curves were constructed using recombinant cytokines provided in the kit. Data analysis was performed using Biolegend software Qognit and Prism (GraphPad, San Diego, CA, USA) software. The experiments were independently replicated four times. Statistical significance was determined using two-way analysis of variance (ANOVA) followed by Tukey’s multiple comparisons test.

In the next series the test system is PBMCs. Kind of series: Direct cytotoxic effect of compounds on PBMCs (Sytox blue). Type of series: cell-based. The conditions noted are these: Table S2; for Percent of dead PBMCs, + LPS: 10 μM + LPS 1 μg/mL; for Percent of dead PBMCs: alone: compounds 10 μM, LPS 1 μg/mL, IL-2 200 U/mL. As for the experimental part:
Additionally, PBMCs and cancer cells alone were treated with desmuramylpeptides to assess any direct cytotoxic effects on these cells.
as §1

Where [2] appears, read: HEK-Blue NOD2 cells, 18 h, NF-κB transcriptional activity (SEAP), read-out: EC50 (nM), NOD2 agonistic activity.

Values after ≈ are worked out from the molar mass of the structure shown. Where two headings read alike, the source gives them in different places.

Compound `CCOC(=O)CC[C@@H](NC(=O)[C@@H](NC(=O)CNC(=O)/C=C/c1ccc(O)c(OC)c1)C(C)C)C(=O)OCC` [Compound 1] yielded a kinetic solubility in series [1] of 417 µM (≈ 223 µg/mL).

In the case of `CCCCCCCCCCCC(=O)Oc1ccc(/C=C/C(=O)NCC(=O)N[C@H](C(=O)N[C@H](CCC(=O)OCC)C(=O)OCC)C(C)C)cc1OC` [Compound 2], in the series with K562 cancer cells, the “cytotoxicity of PBMCs against K562 cells, cotreatment with LPS (relative to negative control)” value is 1.54 fold; the “Cytotoxicity (ratio to control), + LPS” value is on record as 1.54 ± 0.08; the “Cytotoxicity (ratio to control)” value turned out to be 1.00 ± 0.05; the “enhancement of cytotoxicity of PBMCs against K562 cells (relative to negative control)” value is “no activity”. Further, in series [1], the Kinetic solubility entry was “insoluble”. For the same compound, on hNOD2 (2-loaded SLNs and NLCs versus free 2), the “boost of NOD2 agonist activity on incorporation into SLN/NLC” value is 5 factor. For the same compound, the EC50 at hNOD2 (HEK-Blue NOD2 cell line, SLN and NLC formulations by melt-emulsification) was 10.5 nM. Further, on hNOD2 (setting [2]), the EC50 was found to be 9.9 ± 0.69 nM. Also, in the series on human PBMCs (2 μM + LPS 10 ng/mL), the “levels of LPS-induced IL-10” value is given as “amplified”; the “production of MCP-1 and IFN-γ compared to the MDP/LPS combination” value is reported as “significantly diminished production”; the “secretion of IL-1β, IL-10 and TGFβ compared to the MDP/LPS combination” value is given as “increased secretion”. In addition, in the series on PBMCs, the “Percent of dead PBMCs, + LPS” value is 8.07% ± 0.47% and the “Percent of dead PBMCs” value is reported as 0.96% ± 0.14%.

Consider `CCCCCCCCCCCCCCCC(=O)Oc1ccc(/C=C/C(=O)NCC(=O)N[C@H](C(=O)N[C@H](CCC(=O)OCC)C(=O)OCC)C(C)C)cc1OC` [Compound 9, Diethyl ((E)-3-(3-Methoxy-4-(palmitoyloxy)phenyl)acryloyl)glycyl-L-valyl-D-glutamate], for which, in series [1], the Kinetic solubility result was “insoluble”. Besides, the EC50 on hNOD2 (setting [2]) stood at 382 ± 121 nM.

With `CCOC(=O)[C@@H](CCC(=O)NCCCNCCCCNCCCN)NC(=O)[C@@H](NC(=O)CNC(=O)/C=C/c1ccc(O)c(OC)c1)C(C)C` [Compound 32, N^5-(3-((4-((3-Aminopropyl)amino)butyl)amino)propyl)-N^2-((E)-3-(4-hydroxy-3-methoxyphenyl)acryloyl)glycyl-L-valyl-D-glutaminate], in the series on K562 cancer cells, the “cytotoxicity of PBMCs against K562 cells, cotreatment with LPS (relative to negative control)” value worked out at 2.95 fold; the “Cytotoxicity (ratio to control), + LPS” value came to 2.95 ± 0.41; the “Cytotoxicity (ratio to control)” value was found to be 1.10 ± 0.06; the “enhancement of cytotoxicity of PBMCs against K562 cells (relative to negative control)” value is on record as “devoid of the capacity to induce cytotoxicity”. Also, the concentration giving a half-maximal response (EC50) on hNOD2 (setting [2]) turned out to be 8640 ± 1920 nM. Also, the concentration for a half-maximal effect (EC50) on hNOD2 (HEK-Blue NOD2 cells, 18 h, read-out: EC50, NOD2 agonistic activity (text)) stood at 8600 nM. Moreover, in the series on human PBMCs (2 μM + LPS 10 ng/mL), the “amounts of IL-1β, IL-6, IL-10, TNF-α and IFN-γ compared to the MDP/LPS combination” value is listed as “lesser amounts”; the “levels of LPS-induced IL-10” value is given as “opposite”; the “levels of secreted MCP-1 compared to the MDP/LPS combination” value is given as “on par”. For the same compound, the “production of proinflammatory cytokines and chemokines including IL-6, IL-8 and MCP-1” value in the series with human PBMCs (2 μM alone (no LPS)) was “smaller increases”. Further, in the series on PBMCs, the “Percent of dead PBMCs, + LPS” value is 7.20% ± 0.36% and the “Percent of dead PBMCs” value is on record as 1.01% ± 0.22%.

`CCOC(=O)[C@@H](CCC(=O)OCCN1CCOCC1)NC(=O)[C@@H](NC(=O)CNC(=O)/C=C/c1ccc(O)c(OC)c1)C(C)C` [Compound 35, 1-Ethyl 5-(2-Morpholinoethyl) ((E)-3-(4-hydroxy-3-methoxyphenyl)acryloyl)glycyl-L-valyl-D-glutamate] yielded a kinetic solubility in series [1] of 209 µM (≈ 130 µg/mL). For the same compound, the 50% effective concentration (EC50) on hNOD2 (setting [2]) was 356 ± 24 nM. For the same compound, the “drop in activity compared to 1” value at hNOD2 (ethyl ester replaced with morpholinoethyl) is listed as 4 factor.

In turn, `CCOC(=O)CC[C@@H](NC(=O)[C@@H](NC(=O)CNC(=O)/C=C/c1cc(OC)c(O)c(OC)c1)C(C)C)C(=O)OCC` [Compound 37, Diethyl ((E)-3-(4-Hydroxy-3,5-dimethoxyphenyl)acryloyl)glycyl-L-valyl-D-glutamate] displayed a solubility (kinetic) in series [1] of 321 µM (≈ 182 µg/mL). In addition, the concentration for a half-maximal effect (EC50) on hNOD2 (setting [2]) is 96.1 ± 51.5 nM.
